Target: T1, PPARγ (Homo sapiens, UniProt P37231)
T1 construct: made in house
T1 sequence (P37231 1-505): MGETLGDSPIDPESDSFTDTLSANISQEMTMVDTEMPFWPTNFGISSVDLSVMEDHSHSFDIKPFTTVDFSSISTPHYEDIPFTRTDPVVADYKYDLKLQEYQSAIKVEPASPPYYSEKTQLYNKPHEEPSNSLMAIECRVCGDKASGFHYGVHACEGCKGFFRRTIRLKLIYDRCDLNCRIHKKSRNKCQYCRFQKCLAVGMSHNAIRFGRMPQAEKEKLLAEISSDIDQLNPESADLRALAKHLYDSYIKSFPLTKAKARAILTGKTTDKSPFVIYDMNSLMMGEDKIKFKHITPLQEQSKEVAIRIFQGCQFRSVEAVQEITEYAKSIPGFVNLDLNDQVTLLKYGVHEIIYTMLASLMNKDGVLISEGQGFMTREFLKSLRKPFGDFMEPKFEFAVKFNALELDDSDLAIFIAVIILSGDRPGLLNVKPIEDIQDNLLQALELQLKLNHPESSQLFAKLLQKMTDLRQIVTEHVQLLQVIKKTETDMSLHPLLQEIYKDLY
Assay: PPARγ ligand binding assay utilizing [3H]-BRL 49653 as the radioligand (filtration)
Settings: concentration required to reduce by 50% the specific binding of [3H]-BRL 49653
In short: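 Displacement of 10 nM [3H]-BRL 49653 from PPARγ-GST fusion protein in Tris-HCl pH 8.0 buffer with KCl, DTT, BSA and NP-40, 15 min incubation, then glutathione-bead capture for 1 h. Bound radioactivity counted after filtration washes; IC50 is concentration giving 50% loss of specific binding, reported in ranges.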

IC50 [nM] | Compound
< 1000 | Cc1nc(NS(=O)(=O)c2ccc(C(F)(F)F)cc2Cl)ccc1Sc1ccc(S(=O)(=O)N2CCOCC2)cc1 [Compound 103, 2-Chloro-N-{6-methyl-5-[4-(morpholine-4-sulfonyl) -phenylsulfanyl]-pyridin-2-yl}-4-trifluoromethyl-benzenesulfonamide]
< 10000 | CCc1nc(NS(=O)(=O)c2ccc(Cl)cc2Cl)ccc1Sc1ccc(S(=O)(=O)N2CCOCC2)cc1 [Compound 104, 2,4-Dichloro-N-{6-ethyl-5-[4-(morpholine-4-sulfonyl) -phenylsulfanyl]-pyridin-2-yl}-benzenesulfonamide]
< 10000 | CCc1nc(NS(=O)(=O)c2ccc(C(F)(F)F)cc2Cl)ccc1Sc1ccc(S(=O)(=O)N2CCOCC2)cc1 [Compound 105, 2-Chloro-N-{6-ethyl-5-[4-(morpholine-4-sulfonyl) -phenylsulfanyl]-pyridin-2-yl}-4-trifluoromethyl-benzenesulfonamide]
< 1000 | CCCC(=O)c1nc(NS(=O)(=O)c2ccc(Cl)cc2Cl)ccc1Sc1ccc(S(=O)(=O)C(C)C)cc1 [Compound 106, N-{6-Butyryl-5-[4-(propane-2-sulfonyl)-phenylsulfanyl]-pyridin-2-yl}-2,4-dichloro-benzenesulfonamide]
< 1000 | CC(C)S(=O)(=O)c1ccc(Sc2ccc(NS(=O)(=O)c3ccc(Cl)cc3Cl)nc2C(=O)C2CC2)cc1 [Compound 107, 2,4-Dichloro-N-{6-cyclopropanecarbonyl-5-[4-(propane-2-sulfonyl)-phenylsulfanyl]-pyridin-2-yl}-benzenesulfonamide]
< 10000 | O=S(=O)(Nc1ccc(Sc2ccc(S(=O)(=O)N3CCOCC3)cc2)c(C(F)(F)F)n1)c1ccc(Cl)cc1Cl [Compound 108, 2,4-Dichloro-N-{5-[4-(morpholine-4-sulfonyl)-phenylsulfanyl]-6-trifluoromethyl-pyridin-2-yl}-benzenesulfonamide]
< 10000 | O=S(=O)(Nc1ccc(Sc2ccc(S(=O)(=O)N3CCOCC3)cc2)c(C(F)(F)F)n1)c1ccc(C(F)(F)F)cc1Cl [Compound 109, 2-Chloro-N-{5-[4-(morpholine-4-sulfonyl)-phenylsulfanyl]-6-trifluoromethyl-pyridin-2-yl}-4-trifluoromethyl-benzenesulfonamide]
< 10000 | CCCOc1nc(NS(=O)(=O)c2ccc(C(F)(F)F)cc2Cl)ccc1Sc1ccc(S(=O)(=O)N2CCCCC2)cc1 [Compound 110, 2-Chloro-N-{5-[4-(piperidine-1-sulfonyl)-phenylsulfanyl]-6-propoxy-pyridin-2-yl}-4-trifluoromethyl-benzenesulfonamide]
< 10000 | CCCOc1nc(NS(=O)(=O)c2ccc(Cl)cc2Cl)ccc1Sc1ccc(S(=O)(=O)N2CCCCC2)cc1 [Compound 111, 2,4-Dichloro-N-{5-[4-(piperidine-1-sulfonyl)-phenylsulfanyl]-6-propoxy-pyridin-2-yl}-benzenesulfonamide]
< 1000 | CCCC(=O)c1nc(NS(=O)(=O)c2ccc(Cl)cc2Cl)ccc1Sc1ccc(S(=O)(=O)C2CCCC2)cc1 [Compound 112, N-[6-Butyryl-5-(4-cyclopentanesulfonyl-phenylsulfanyl)-pyridin-2-yl]-2,4-dichloro-benzenesulfonamide]
< 1000 | O=C(c1nc(NS(=O)(=O)c2ccc(Cl)cc2Cl)ccc1Sc1ccc(S(=O)(=O)C2CCCC2)cc1)C1CC1 [Compound 113, 2,4-Dichloro-N-[5-(4-cyclopentanesulfonyl-phenylsulfanyl)-6-cyclopropanecarbonyl-pyridin-2-yl]-benzenesulfonamide]
< 1000 | CCCC(=O)c1nc(NS(=O)(=O)c2ccc(C(F)(F)F)cc2Cl)ccc1Sc1ccc(S(=O)(=O)C2CCCC2)cc1 [Compound 114, N-[6-Butyryl-5-(4-cyclopentanesulfonyl-phenylsulfanyl)-pyridin-2-yl]-2-chloro-4-trifluoromethyl-benzenesulfonamide]
< 1000 | O=C(c1nc(NS(=O)(=O)c2ccc(C(F)(F)F)cc2Cl)ccc1Sc1ccc(S(=O)(=O)C2CCCC2)cc1)C1CC1 [Compound 115, 2-Chloro-N-[5-(4-cyclopentanesulfonyl-phenylsulfanyl)-6-cyclopropanecarbonyl-pyridin-2-yl]-4-trifluoromethyl-benzenesulfonamide]
< 1000 | CCCC(=O)c1nc(NS(=O)(=O)c2ccc(C(F)(F)F)cc2Cl)ccc1Sc1ccc(S(=O)(=O)C(CC)CC)cc1 [Compound 116, N-{6-Butyryl-5-[4-(pentane-3-sulfonyl)-phenylsulfanyl]-pyridin-2-yl}-2-chloro-4-trifluoromethyl-benzenesulfonamide]
< 10000 | CCC(CC)S(=O)(=O)c1ccc(Sc2ccc(NS(=O)(=O)c3ccc(C(F)(F)F)cc3Cl)nc2C(=O)C2CC2)cc1 [Compound 117, 2-Chloro-N-{6-cyclopropanecarbonyl-5-[4-(pentane-3-sulfonyl)-phenylsulfanyl]-pyridin-2-yl}-4-trifluoromethyl-benzenesulfonamide]
< 1000 | CCCC(=O)c1nc(NS(=O)(=O)c2ccc(Cl)cc2Cl)ccc1Sc1ccc(S(=O)(=O)NCC)cc1 [Compound 118, N-[6-Butyryl-5-(4-ethylsulfamoyl-phenylsulfanyl)-pyridin-2-yl]-2,4-dichloro-benzenesulfonamide]
< 1000 | CCNS(=O)(=O)c1ccc(Sc2ccc(NS(=O)(=O)c3ccc(Cl)cc3Cl)nc2C(=O)C2CC2)cc1 [Compound 119, 2,4-Dichloro-N-[6-cyclopropanecarbonyl-5-(4-ethylsulfamoyl-phenylsulfanyl)-pyridin-2-yl]-benzenesulfonamide]
< 1000 | CCCC(=O)c1nc(NS(=O)(=O)c2ccc(C(F)(F)F)cc2Cl)ccc1Sc1ccc(S(=O)(=O)NCC)cc1 [Compound 120, N-[6-Butyryl-5-(4-ethylsulfamoyl-phenylsulfanyl)-pyridin-2-yl]-2-chloro-4-trifluoromethyl-benzenesulfonamide]
< 1000 | CCNS(=O)(=O)c1ccc(Sc2ccc(NS(=O)(=O)c3ccc(C(F)(F)F)cc3Cl)nc2C(=O)C2CC2)cc1 [Compound 121, 2-Chloro-N-[6-cyclopropanecarbonyl-5-(4-ethylsulfamoyl-phenylsulfanyl)-pyridin-2-yl]-4-trifluoromethyl-benzenesulfonamide]
< 1000 | CCCCc1nc(NS(=O)(=O)c2ccc(Cl)cc2Cl)ccc1Sc1ccc(S(=O)(=O)N2CCCCC2)cc1 [Compound 122, N-{6-Butyl-5-[4-(piperidine-1-sulfonyl)-phenylsulfanyl]-pyridin-2-yl}-2,4-dichloro-benzenesulfonamide]
< 1000 | CCCCc1nc(NS(=O)(=O)c2ccc(C(F)(F)F)cc2Cl)ccc1Sc1ccc(S(=O)(=O)N2CCCCC2)cc1 [Compound 123, N-{6-Butyl-5-[4-(piperidine-1-sulfonyl)-phenylsulfanyl]-pyridin-2-yl}-2-chloro-4-trifluoromethyl-benzenesulfonamide]
< 1000 | CCCCc1nc(NS(=O)(=O)c2ccc(Cl)cc2Cl)ccc1Sc1ccc(S(=O)(=O)N2CCOCC2)cc1 [Compound 124, N-{6-Butyl-5-[4-(morpholine-4-sulfonyl)-phenylsulfanyl]-pyridin-2-yl}-2,4-dichloro-benzenesulfonamide]
< 1000 | CCCCc1nc(NS(=O)(=O)c2ccc(C(F)(F)F)cc2Cl)ccc1Sc1ccc(S(=O)(=O)N2CCOCC2)cc1 [Compound 125, N-{6-Butyl-5-[4-(morpholine-4-sulfonyl)-phenylsulfanyl]-pyridin-2-yl}-2-chloro-4-trifluoromethyl-benzenesulfonamide]
< 1000 | CCCCCOC(=O)c1cc(NS(=O)(=O)c2ccc(Cl)cc2Cl)ncc1Sc1ccc(S(=O)(=O)N2CCCCC2)cc1 [Compound 126, 2-(2,4-Dichloro-benzenesulfonylamino)-5-[4-(piperidine-1-sulfonyl)-phenylsulfanyl]-isonicotinic acid pentyl ester]
< 1000 | O=C(c1cc(NS(=O)(=O)c2ccc(Cl)cc2Cl)ncc1Sc1ccc(S(=O)(=O)N2CCCCC2)cc1)C1CC1 [Compound 128, 2,4-dichloro-N-{4-cyclopropanecarbonyl-5-[4-(piperidine-1-sulfonyl)-phenylsulfanyl]-pyridin-2-yl}-benzenesulfonamide]
< 1000 | O=C(c1cc(NS(=O)(=O)c2ccc(C(F)(F)F)cc2Cl)ncc1Sc1ccc(S(=O)(=O)N2CCOCC2)cc1)C1CC1 [Compound 129, 2-Chloro-N-{4-cyclopropanecarbonyl-5-[4-(morpholine-4-sulfonyl)-phenylsulfanyl]-pyridin-2-yl}-4-trifluoromethyl-benzenesulfonamide]
< 1000 | CCCCc1cc(NS(=O)(=O)c2ccc(C(F)(F)F)cc2Cl)nnc1Sc1ccc(S(=O)(=O)N2CCOCC2)cc1 [Compound 130, 3-(2′-chloro-4′-trifluoromethyl)phenylsulfonylamino-5-n-butyl-6-(4″-N-morpholinesulfonyl)phenylthiopyridazine]
< 1000 | CCCCc1cc(NS(=O)(=O)c2ccc(Cl)cc2Cl)nnc1Sc1ccc(S(=O)(=O)N2CCOCC2)cc1 [Compound 131, 3-(2′,4′-dichloro)phenylsulfonylamino-5-n-butyl-6-(4″-N-morpholinesulfonyl)phenylthiopyridazine]
